# Source: patent US20040014729A1, “Use of estramustine phosphate in the treatment of bone metastasis” (priority 2003, published 2004)
# Entries after “also recorded” stand apart in the source; their conditions may differ.
# Legend:
# mouse calvaria = assay: Bone resorption assay, organ culture with 45Ca-prelabeled mouse calvaria (PTH-stimulated 45Ca release); assay type: cell-based; details: for bone resorption in vitro (in words): compound present during culture
# Experimental: This example used the organ culture technique with mouse calvaria.
# The organ culture technique was used with ^45Ca-prelabeled mouse calvaria. The method has been described by Lerner (1987) and Ljunggren et al. (1991). Newborn mice were injected subcutaneously with ^45CaCl (1.5 μCi/animal). After four days their calvaria were dissected, split into quarters and preincubated in phenol red free CMRL 1066 medium supplemented with 0.1% bovine serum albumin and 50 μg/ml gentamicin for 24 hours at 37° C. in a humidified atmosphere of 5% CO2 in air in the presence of indomethacin (1 μmol/l) and 10 nmol/l bovine parathyroid hormone (PTH). After washing the bone pieces, the medium was changed and cultures incubated for three more days in the same medium but without indomethacin in the presence or absence of estramustine phosphate or clodronate. Resorption was measured by assaying the ^45Ca liberated into the medium using a standard technique for liquid scintillation counting. Total ^45Ca was determined after hydrolysing the calvaria in 6 mol/l HCI overnight. Bone resorption was studied in various concentrations of estramustine phosphate and the effect of estramusine phosphate present only during the preincubation stage was checked in order to study its cytotoxcity.
# Results are expressed as mean ±SEM, n=5 or 10. Inhibition percentage was calculated as follows [formula]
# [1] = Effect of estramustine phosphate and clodronate on their mutual bioavailability (serum AUC0-24h, Cmax, serum estradiol) in patients
# Experimental: Twelve male patients aged 62-80 were divided into two groups of six patients.
# The first group of six patients were given 3200 mg daily of clodronate only for four days. On the fifth day the AUC0-24 h for the drug was calculated from serum concentrations of repeated blood samples. On the sixth day, 560 mg estramustine phosphate was add per oral to the clodronate treatment for the following four days. On day ten, the AUC0-24 h for both drugs was calculated.
# The second group of six patients were give orally 560 mg daily of estramustine phosphate only for four days. On the fifth day the AUC0-24 h for the drug was calculated from serum concentrations of repeated blood samples. On the sixth day, 3200 mg clodronate was added to the estramustine phosphate treatment for the following four days. On day ten, the AUC0-24 h for both drugs was calculated.
# The clodronate was provided as 400 mg capsules, and the estramustine phosphate used was estracyt in 140 mg capsules.
# The method used in the analysis of the serum estramustine phosphate concentrations measures […] and is insensitive to any metabolites. The estradiol-related metabolites (estramustine and estradiol) were not analyized in connection with the bioanalysis. […] Unfortunately, estradiol was not measured after administration of estramustine phosphate alone.
# [2] = present only during preincubation, then washed away, concentration not given
Compound,"resorption, compound present only during preincubation (in words) (mouse calvaria; [2])","AUC0-24h and Cmax, alone versus concomitantly with the other drug (in words) ([1]; human, in vivo, po)","bioavailability when the other drug is added (in words) ([1]; human, in vivo, po)","AUC0-24h Clodronate ([1]; male, human, in vivo, 3200 mg) [ng·h/mL]","resorption, compound present only during preincubation (in words) (mouse calvaria; 10 μmol/l)","resorption, compound present only during preincubation (in words) (mouse calvaria; 100 μmol/l)","observation in culture medium (mouse calvaria; Experiment 1, 1000 μmol/l)",bone resorption in vitro (in words) (mouse calvaria),bone resorption in vitro (in words) (mouse calvaria; listed as estramustine phosphate sodium),"AUC0-24h and Cmax, alone versus concomitantly with the other drug (in words) ([1]; patients, oral)","bioavailability when the other drug is added (in words) ([1]; patients, oral)"
"O=P(O)(O)C(Cl)(Cl)P(=O)(O)O [Clodronate, Disodium clodronate]",also inhibits resorption,did not differ significantly,no effect,19300,–,–,–,–,–,–,–
"C[C@]12CC[C@@H]3c4ccc(OC(=O)N(CCCl)CCCl)cc4CC[C@H]3[C@@H]1CC[C@@H]2OP(=O)([O-])[O-].[Na+].[Na+] [Estramustine phosphate, Estramustine phosphate sodium]",PTH could not stimulate,–,–,–,slightly increased,strongly inhibited,(precipitate),inhibited bone resorption in this in vitro model concentration-dependently and about as effectively as clodronate,dose-dependently inhibited; also recorded: inhibits bone resorption in vitro,differed statistically,almost doubled
